Source: paper PMC3170264 (Retrovirology, 2011)

Tests used:
[1] = test system: HIV-2 IN E92A/T97A/N155H (T1); assay: strand transfer inhibition, IN from clinical isolate T1; assay type: biochemical; settings: clinical isolate T1, N155H with substitutions at positions 92 and 97, 200 nM IN
Protocol: (§1) Activity is expressed as a % of control without drug. Experiments were performed two times.
(§2) The HIV-2 ODN substrate sequences were: UA: 5'-[…]-3'; U5B: 5'-[…]-3'; U5B-2: 5'-[…] […]-3'.

HIV-2 N3 IN = target: T1, HIV-2 N3 IN (Human immunodeficiency virus type 2 subtype B, UniProt Q89928, A1457T/D1293E/D1331N/F1194Y/I1218V/I1301V/I1428V/K1172N/M1455R/N1185G/N1438H/Q1389K/R1202K/R1392Q/T1348A/T1383A); assay: strand transfer inhibition, IN from clinical isolate N3; assay type: biochemical; settings: IN from RAL-naive patient N3; 200 nM IN; 37°C; Mg2+
T1 construct: His-tag (pET-15b) (N); made in house; host or cells: Escherichia coli BL21-CodonPlus (DE3)-RIPL
T1 sequence (Q89928 1169-1461 K1172N/N1185G/F1194Y/R1202K/I1218V/D1293E/I1301V/D1331N/T1348A/T1383A/Q1389K/R1392Q/I1428V/N1438H/M1455R/A1457T): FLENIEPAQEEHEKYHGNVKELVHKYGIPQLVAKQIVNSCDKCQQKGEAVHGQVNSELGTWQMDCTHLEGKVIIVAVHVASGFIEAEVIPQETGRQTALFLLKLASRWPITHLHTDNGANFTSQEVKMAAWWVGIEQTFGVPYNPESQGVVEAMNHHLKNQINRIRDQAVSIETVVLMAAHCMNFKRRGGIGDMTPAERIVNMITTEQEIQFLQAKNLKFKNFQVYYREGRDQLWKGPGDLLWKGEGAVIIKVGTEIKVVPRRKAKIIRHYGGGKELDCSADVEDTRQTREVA
Protocol: The ST reaction was performed using a ^32P-labeled oligonucleotide mimicking the preprocessed substrate. Drug concentrations are indicated above each lane. […] Activity is expressed as a % of control without drug. Experiments were repeated two times.
as §2

[2] = target: T2, HIV-2 IN G140S/Q148R (T3) (Human immunodeficiency virus type 2 subtype A, UniProt P04584, A1212T/E1378D/G1311S/I1304V/I1351V/I1372T/M1463V/Q1319R/R1205K/R1395Q/S1188G/S1210T/T1231V/V1190I); assay: strand transfer inhibition, IN from clinical isolate T3; assay type: biochemical; settings: clinical isolate T3, G140S/Q148R double mutant; IC50 not reached at concentrations up to 1 μM
T2 construct: His-tag (pET-15b) (N); made in house; host or cells: Escherichia coli BL21-CodonPlus (DE3)-RIPL
T2 sequence (P04584 1172-1464 S1188G/V1190I/R1205K/S1210T/A1212T/T1231V/I1304V/G1311S/Q1319R/I1351V/I1372T/E1378D/R1395Q/M1463V): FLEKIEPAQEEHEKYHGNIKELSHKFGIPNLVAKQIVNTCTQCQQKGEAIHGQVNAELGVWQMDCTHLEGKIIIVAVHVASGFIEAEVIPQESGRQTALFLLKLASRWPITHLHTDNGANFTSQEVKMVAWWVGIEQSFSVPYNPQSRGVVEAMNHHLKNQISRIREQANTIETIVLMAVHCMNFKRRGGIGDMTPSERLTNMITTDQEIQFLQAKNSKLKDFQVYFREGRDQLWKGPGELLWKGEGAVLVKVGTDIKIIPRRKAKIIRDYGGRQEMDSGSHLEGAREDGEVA
Protocol: as §1, §2

wild-type HIV-2 = settings: phenotypic susceptibility similar to that of HIV-1; cited from earlier work

Cc1nnc(C(=O)NC(C)(C)c2nc(C(=O)NCc3ccc(F)cc3)c(O)c(=O)n2C)o1 [RAL, raltegravir]
factor of increase of IC50 versus wild-type N1 IN [1]: about 50 | IC50 (HIV-2 N3 IN): 48 nM | IC50 [2]: > 1000 nM | activity against wild-type HIV-2 (wild-type HIV-2): active
